# Reference: US20260174745A1, “COMPOSITIONS AND METHODS FOR TREATING NF1 AND OTHER CONDITIONS” (priority 2022, published 2026)
# Assays:
# [1] = tested on: mammary tumors; conditions: previously shown; cited from earlier work
# [2] = Triglyceride levels in LL2 dose ranging study; conditions: bexarotene 30 mg/kg; plasma
# Experimental: In this study, 7-8 week old male C57/BL6 mice were injected with 1×10^6 LL2 cells subcutaneously into the left flank. Tumors were measured with calipers twice per week (Monday and Thursday) and mice were weighed once per week (Monday). […] When tumors reached endpoint (20×20 mm or ulceration), mice were euthanized and tumors fixed in formalin. Blood was collected for plasma. Stats: two-way ANOVA w/Tukey HSD.
# [3] = tested on: LL2 cells; assay: LL2 subcutaneous tumor dose ranging study; assay type: in vivo, C57/BL6 mice; conditions: bexarotene 30 mg/kg
# [4] = tested on: mammary tumors; assay: MMTV-neu mice with established mammary tumors; assay type: in vivo; conditions: for T cell / immune cell populations in mammary tumors: flow cytometry and IHC
# Experimental: FIG. 5 is plots and stains obtained from MMTV-neu mice with established mammary tumors, which were treated with compound 1 for 10 days. Tumor size (A) was evaluated by calipers, immune cell populations by flow cytometry (B) and IHC (C). n=8 mice/group in A-C and n=4/group for quantification (D) of PCNA and p-ERK optical density. The data in FIG. 5 compound 1 reduces tumor burden and p-ERK and alters T cell populations in mammary tumors.
# [5] = tested on: NF1-ipNF 95.6 neurofibroma cells; assay: p-ERK expression by western blotting in neurofibroma cells; assay type: cell-based, human; conditions: 3 hours; for reduction of p-ERK expression: 50 nM selumetinib, 200 nM compound 1 or combination
# Experimental: (§1) FIGS. 6A and 6B are a […] and a plot, respectively, generated from experiments on NF1-ipNF 95.6 neurofibroma cells treated with 50 nM selumetinib (Sel), 5 nM trametinib (Tra, an alternative MEK inhibitor used as a control), 200 nM compound 1, or the combination for 3 hours. Protein expression was evaluated by western blotting and LiCOR imaging (A). In B, cells were treated with 200 nM MSU42011, 100 nM Sel or the combination for 72 hrs, and cell viability measured using an MTT assay. *, P<0.05 vs. other groups.
# [6] = tested on: THP1 macrophages; assay: CCL2 mRNA (qPCR) in THP1 macrophages stimulated with conditioned medium from ipNF95.6 cells; assay type: cell-based, human; conditions: 50 nM selumetinib, 200 nM compound 1 or combination, 24 hrs, PMA + CM
# Experimental: FIG. 8 is a plot showing results of experiments involving THP1 human monocytes that were differentiated into macrophages with 50 ng/ml PMA for 3 days, followed by treatment with conditioned medium (CM) from ipNF95.6 neurofibroma cells and drugs (50 nM selumetinib (Sel), 200 nM compound 1, or the combination) for an additional 24 hrs. CCL2 expression was evaluated by qPCR and normalized to the DMSO control without treatment with PMA+CM (not shown). Data represent means±standard deviations of two independent experiments, p<0.05 vs. DMSO control.
# FIG. 10A is a plot showing the results where THP1 monocytes were differentiated into macrophages with 50 ng/ml PMA for 3 days, followed by treatment with CM from human PNF cells (ipNF95.6) and drugs (50 nM selumetinib, 200 nM compound 1, or the combination) for an additional 24 hrs.
# Combination treatment with compound 1 and selumetinib decreased CCL2 mRNA expression in THP1 cells and BMDM stimulated with conditioned media (CM) from human and mouse PNF cells. […] CCL2 mRNA expression was evaluated by qPCR and normalized to the DMSO control without CM treatment (not shown). Data represent means±standard deviations. * p<0.05, ** p<0.01 compared with vehicle treatment.
# [7] = Triglyceride elevation in vivo
# [8] = tested on: RXR; assay: RXR activation; conditions: read-out: EC50 in activating RXR
# [9] = tested on: NF1-ipNF 95.6 neurofibroma cells; assay: MTT cell viability in neurofibroma cells; assay type: cell-based, human; conditions: 200 nM MSU42011, 100 nM selumetinib or combination, 72 hrs
# Experimental: as §1
# [10] = tested on: Kras-driven lung tumors; assay: Established Kras-driven lung tumors in A/J mice (vinyl carbamate initiation); assay type: in vivo
# Experimental: FIG. 2 is photographs of mouse lungs and mouse lung tissue section stains collected […] of Kras mutations with vinyl carbamate. A/J mice were fed control diet or RXR agonists (100 mg/kg diet or 25 mg/kg body weight) for 12 weeks. Lungs were harvested and photographed (A) and then sectioned and stained with hematoxylin and eosin (“H & E”) to evaluate tumor grade (B) as defined in collaboration with a human lung cancer pathologist. […] Compound 1 has the structure: FIG. 3 is a plot of tumor burden and photographs of mouse lung tissue section stains. Eight weeks after initiation of Kras mutations, A/J mice were fed control diet or compound 1 (25 mg/kg) for 12 weeks. Lungs were sectioned and stained with H & E or by immunohistochemistry (“IHC”) to evaluate tumor burden or biomarkers, respectively. […] FIG. 4 is plots showing data collected from lung tumors induced in A/J mice as described in FIG. 3. After 12 weeks of treatment with compound 1 (25 mg/kg) or control diet, lungs were harvested. Immune cell populations in the lungs were analyzed by flow cytometry using an optimized multi-colored panel of antibodies.
# [11] = flow cytometry of lungs, p<0.05
compound,measurement,setting,value
Cc1cc2c(cc1C1(c3ccc(C(=O)O)cn3)CC1)C(C)(C)CCC2(C)C [LG100268],"CD206+ tumor-promoting macrophages, MDSCs and Foxp3+ Tregs in tumors",[1],decreased
same,number of activated cytotoxic CD8 T cells in tumors,[1],increased
C=C(c1ccc(C(=O)O)cc1)c1cc2c(cc1C)C(C)(C)CCC2(C)C [bexarotene],"CD206+ tumor-promoting macrophages, MDSCs and Foxp3+ Tregs in tumors",[1],not observed
same,number of activated cytotoxic CD8 T cells in tumors,[1],not observed
same,triglyceride levels,[2],raises triglycerides
same,activity against the tumors,[3],not active against the tumors
"CC(C)N(c1cc(C(C)(C)C)cc(C(C)(C)C)c1)c1ccc(C(=O)O)cn1 [compound 1, 6-[(3,5-di-tert-butylphenyl) (propan-2-yl)amino]pyridine-3-carboxylic acid]",T cell / immune cell populations in mammary tumors,[4],alters
same,T cell / immune cell populations in mammary tumors,[4]; listed as Compound 1,alters the same immune cells in this model as LG100268
same,p-ERK in mammary tumors,"[4]; treated 10 days, IHC optical density",reduces
same,tumor burden in mammary tumors,"[4]; treated 10 days, calipers",reduces
same,reduction of p-ERK expression,[5],approximately 70%
same,expression of p-ERK,"[5]; 200 nM compound 1, 50 nM selumetinib",decreases
same,decrease of CCL2 mRNA expression,[6],23%
same,elevation of triglycerides in vivo,[7],does not elevate triglycerides
same,EC50,[8],30 nM
same,cell viability,[9],reduces viability
same,lung tumor burden,"[10]; 25 mg/kg in diet, 12 weeks",significantly (p=0.0015) reduced
same,tumor-promoting CD206+ macrophages within lung tumors,[10]; IHC,reduced
same,p-ERK levels within lung tumors,"[10]; IHC, p=0.03",reduced
same,"activated cytotoxic T cells (ratio of CD8+/CD4+, CD25+)",[10]; [11],increased
same,immunosuppressive CD4+CD25+ Tregs,[10]; [11],decreased
same,tumors that were high grade,"[10]; histopathology, control group 77%, p<0.05",62%
same,average tumor burden lower compared to the control and bexarotene groups,"[10]; lungs of A/J mice, 100 mg/kg diet (25 mg/kg body weight), 12 weeks, p=0.015",60%
same,"number, size and histopathology of lung tumors",[10]; vs untreated controls and bexarotene-treated mice,significantly (p<0.05) decreased
"Cn1cnc2c(F)c(Nc3ccc(Br)cc3Cl)c(C(=O)NOCCO)cc21 [selumetinib, reference compound]",reduction of p-ERK expression,[5],~40%
